These results are taken from BindingDB's records for doi:10.1021/np000120k (The University of Tokyo, 2000).

This assay has as its target T1, Carboxypeptidase A1 (Homo sapiens, UniProt P15085).
T1 sequence (P15085 whole entry): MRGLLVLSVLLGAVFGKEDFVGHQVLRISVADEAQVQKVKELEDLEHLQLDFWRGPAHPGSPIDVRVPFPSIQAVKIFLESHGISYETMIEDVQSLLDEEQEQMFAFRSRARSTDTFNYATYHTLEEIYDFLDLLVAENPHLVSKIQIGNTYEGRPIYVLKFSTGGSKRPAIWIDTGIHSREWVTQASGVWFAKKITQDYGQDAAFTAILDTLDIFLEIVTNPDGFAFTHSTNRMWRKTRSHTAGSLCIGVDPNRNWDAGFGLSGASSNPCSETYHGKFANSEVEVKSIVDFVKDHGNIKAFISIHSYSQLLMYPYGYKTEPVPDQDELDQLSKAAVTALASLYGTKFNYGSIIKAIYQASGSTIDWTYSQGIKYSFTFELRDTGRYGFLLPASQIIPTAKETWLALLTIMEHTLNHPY
Description: Inhibition of carboxypeptidase A.

Structures are written as SMILES. ≈ marks a conversion by molar mass, not a printed value. Starred links: 1 amine or outer side, 2 acyl side, 3 side chain; linkers in the order of their positions; H or OH if unused. Positions of bridges follow the written chain, without caps; N, C: chain ends. Non-standard residues stand in square brackets, D forms with d. Residues, ends and D or L forms follow the SMILES beside them. NMehTyr = CN[C@@H](CCc1ccc(O)cc1)C(=O)O; hTyr = N[C@@H](CCc1ccc(O)cc1)C(=O)O; CO = O=C([*:1])[*:2]

Take `CC[C@H](C)[C@@H]1NC(=O)[C@H](NC(=O)N[C@@H](Cc2ccc(O)cc2)C(=O)O)CCCCNC(=O)[C@H]([C@@H](C)CC)NC(=O)[C@H](CCc2ccc(O)cc2)N(C)C(=O)[C@H](CCc2ccc(O)cc2)NC1=O` [Anabaenopeptin G] ({Tyr-CO}-[dK]I[hTyr][NMehTyr]I; lactam 1-C): half-maximal inhibition (IC50) required 7 ng/mL (≈ 7.53 nM).
